Like-named read-outs stand apart in the source and are kept apart here.
What was measured:
bananas [1] = test: Minimum amount of cyclopropene as a gas required to protect bananas from ethylene; type: in vivo, Musa paradisiaca L; details: for minimum concentration required for protection of bananas: 24 hour exposure, compound as a gas; for Minimum Concentration: amount of compound as a gas that would protect bananas by a 24 hour exposure; for minimum protection value: as a gas, restated with FIG. 3
Method: Untreated mature green bananas (Musa paradisiaca L) from Costa Rica which were ready for market were obtained from the local Farmers Market and were kept at 14.5° C. until use. Bananas were used within 24 hours of arrival. Experiments were conducted at approximately 22-23° C. No damaged fruit were used in the experiments. […] The jars were then vented and ethylene was injected and allowed to stand for a minimum of 15 hours and then allowed to stand at 23° C. until ethylene responses developed. For gaseous phase treatment, the compound is applied to bananas by pipetting solution onto filter paper. Filter paper is used to increase surface area in a 3 L jar. The jar is sealed for 24 hours to give enough time to diffuse through plant tissue to the ethylene binding sites. 333 ul/L of ethylene gas is added to the jars. The jars are then resealed for 15 hours. This allows for maximal exposure to ethylene to measure effectiveness of the compounds. Firmness was recorded over a number of days. Disappearance of chlorophyll was determined by extracting chlorophyll from banana peels. Absorbance was measured in a spectrometer. The minimum amount of cyclopropene necessary to protect bananas from ethylene was determined after the bananas had been exposed to the compound for 24 hours. Following this time, the fruits were vented for 10 minutes and then exposed to 333 ? l^-I of ethylene gas treatment. This has been the procedure for most other studies involving cyclopropene compounds and bananas. This time was used so that a reasonable comparison could be made with previous work ([…]. et al. 1996 a; 1996b; 1999; 2001; 2003). (See […]., et al., Effect of 1-methylcyclopropene, and methylenecyclopropene on ethylene binding and ethylene action in cut carnations, Plant Growth Reg., 18, 79-86, (1996a); […]., et al., The effect of chemical structure on the antagonism by cyclopropenes of ethylene responses in banana, Plant Growth Reg., 33, 107-110 (2001); […]., et al., 1-Substituted cyclopropenes: Effective blocking agents for ethylene action in plants, Plant Growth Reg. 40, 221-228 (2003)).

banana peel = test: Protection of chlorophyll in banana peel by compound applied as salt (swab) or gas, then ethylene; type: in vivo, Musa paradisiaca L; details: for difference between the highest and lowest chlorophyll value of the concentration series: FIG. 3, acetate salts, series 1 to 2.5 times starting at 3 times the gas minimum, 24 hour exposure; for chlorophyll level in banana peels against concentration: FIG. 6A, treated using acetic acid
Method: Untreated mature green bananas (Musa paradisiaca L) from Costa Rica which were ready for market were obtained from the local Farmers Market and were kept at 14.5° C. until use. Bananas were used within 24 hours of arrival. Experiments were conducted at approximately 22-23° C. No damaged fruit were used in the experiments. […] The jars were then vented and ethylene was injected and allowed to stand for a minimum of 15 hours and then allowed to stand at 23° C. until ethylene responses developed. When the effect of the respective salts of the cyclopropenes were assayed, the salt was mixed with the desired amount of water containing Tween 20 as a wetting agent and the acid. Usually 200 μl of water, 20 μl of Tween 20 and 100 μl of 0.1 M acid and the compound dissolved in ether were used. These salts were applied to the banana. The peels were swabbed to spread the mixture and increase the exposed surface area. The bananas were placed in an unsealed 3-liter jar and allowed to stand 24 hours. In the case of the carbonate salt, the compound was exposed to carbon dioxide in water long enough for the salt to form. In this case, the carbonate salt was formed by mixing the compound dissolved in water with CO2. The concentration of CO2 in water at 1 atmosphere and 25° C. is reported to be 0.0338 M (Daniels and Alberty 1955) (See Daniels, F, et al., Physical Chemistry, John Wiley and Sons New York, 200 (1955). […] (See Cotton, et al., Advanced Inorganic Chemistry John Wiley and Sons. New York, 152 (1999). At the end of 24 hours, ethylene was injected and the jars were sealed. After 15 hours exposure, the bananas were removed and observed for several days for the effect of ethylene. An untreated check banana and a similar untreated banana treated with ethylene only were included in each experiment for comparison. For gaseous phase treatment, the compound is applied to bananas by pipetting solution onto filter paper. Filter paper is used to increase surface area in a 3 L jar. The jar is sealed for 24 hours to give enough time to diffuse through plant tissue to the ethylene binding sites. 333 ul/L of ethylene gas is added to the jars. The jars are then resealed for 15 hours. This allows for maximal exposure to ethylene to measure effectiveness of the compounds. Firmness was recorded over a number of days. Disappearance of chlorophyll was determined by extracting chlorophyll from banana peels. Absorbance was measured in a spectrometer. For aqueous phase (salts) treatment, compounds were alternatively tested by mixing the solutions in acid and a detergent. The detergent, Tween 20, was used as a wetting agent. Solutions were then applied at various concentrations to the banana with a cotton swab. Bananas were then sealed in a jar and treated in the same manner as with the gas compound procedures described above. Chlorophyll was determined by the method of Arnon (Arnon, D I (1949) Copper content in isolated chloroplasts. Polyphenoloxidase in Beta vulgaris. Plant Physiology 24:1-15) or by using a reflective chlorophyll meter (Field Scout CM 1000 Spectronic Technologies Inc.). To extract chlorophyll, a measured area of peel was cut from representative areas of the peel and placed in boiling water for 3 minutes. The samples were then removed and blended with acetone. After standing overnight in the dark, they were filtered then concentrated in a hood and chlorophyll determined by the method of Arnon (1949) according to the procedures outlined by Holden (1965). Banana peel samples were cut and mixed with acetone to extract chlorophyll. Samples were made in an ether solution and absorbance measured at 663 nm.

bananas [2] = test: Time of protection of bananas against ethylene; type: in vivo, Musa paradisiaca L
Method: Untreated mature green bananas (Musa paradisiaca L) from Costa Rica which were ready for market were obtained from the local Farmers Market and were kept at 14.5° C. until use. Bananas were used within 24 hours of arrival. Experiments were conducted at approximately 22-23° C. No damaged fruit were used in the experiments. Bananas were treated to an amount of compound believed to saturate the receptor sites (10 times the minimum amount for protection). The bananas were exposed for 24 hours then vented. They were kept on a laboratory bench and each day a sample was exposed to ethylene. The day the bananas were treated with ethylene and the day the bananas turned yellow and became soft were recorded. Generally, this observation occurred about 3 days after the ethylene treatment day. The treatment day the bananas first ripened was considered to be the time of protection.

bananas [3] = test: Stability of the compound after 1 hour incubation with acids or salts at different pH, read by banana chlorophyll; type: physicochemical, Musa paradisiaca L; details: for Chlorophyll (% of control): readings at 7 days
Method: Chlorophyll was determined by the method of Arnon (Arnon, D I (1949) Copper content in isolated chloroplasts. Polyphenoloxidase in Beta vulgaris. Plant Physiology 24:1-15) or by using a reflective chlorophyll meter (Field Scout CM 1000 Spectronic Technologies Inc.). To extract chlorophyll, a measured area of peel was cut from representative areas of the peel and placed in boiling water for 3 minutes. The samples were then removed and blended with acetone. After standing overnight in the dark, they were filtered then concentrated in a hood and chlorophyll determined by the method of Arnon (1949) according to the procedures outlined by Holden (1965).
However, these compounds are thought to be unstable under very acidic conditions. Liao et al. in some synthetic procedures lower the pH to 1-3.

Petunia hybridia = test: Protection of petunia flowers against ethylene; type: in vivo; details: 100 nl, gas or carbonate salt form, ethylene 24 hours, at 5 days, FIG. 8
Method: FIG. 8. Protection of flowers (Petunia hybridia) by N,N-dipropyl(1-cyclopropenylmethyl)amine (100 nl) as a gas or as the carbonate salt. Treatment included check (control), ethylene, gas form, salt form of N,N-dipropyl(1-cyclopropenylmethyl)amine, from left to right. All except check were subjected to ethylene for 24 hours.
In experiments to study effects of the compounds described herein on the ethylene response in flowering plants, the petunia (Petunia hybridia), a well known ethylene sensitive flower, and the dandelion (Krigia dandelion) were used in the experiments.
FIGS. 7 and 8 present the results of using 100 nl N,N-dipropyl(1-cyclopropenylmethyl)amine on dandelions and petunias, respectively. The Krigia dandelion is commonly known as a weed that can be found along roads during particular times of the year such as spring and summer. It is of interest because ethylene can cause the plant to become dormant and, as a defense mechanism, the plant can become dormant when there is drought. […] The petunia is a well-known ethylene sensitive flower.

[4] = cited from earlier work
[5] = 24 hour exposure at 10 times the minimum amount, daily ethylene challenge

CN(C)CC1=CC1 [N,N--Dimethyl (1-Cyclopropenylmethyl)amine]
minimum concentration required for protection of bananas (bananas [1]): 73 nl l^−I
Minimum Concentration (bananas [1]): 73 nl/l
minimum protection value (bananas [1]): 73 nl l^−1
difference between the highest and lowest chlorophyll value of the concentration series (banana peel): 30.9 % of the control
chlorophyll level in banana peels against concentration (banana peel): ascending concentrations to have increasingly higher chlorophyll levels
protection time (bananas [2]): 34 days
protection time (bananas [2]; [5]): 34 days

C1=C(CNCC2=CC2)C1
minimum concentration required for protection of bananas (bananas [1]): 5.3 nl l^−I
Minimum Concentration (bananas [1]): 5.7 nl/l
protection time (bananas [2]): 33 days
protection time (bananas [2]; [5]): 33 days

CCCCN(CCCC)CC1=CC1 [N,N--Dibutyl (1-Cyclopropenylmethyl)amine]
minimum concentration required for protection of bananas (bananas [1]): 184 nl l^−I
Minimum Concentration (bananas [1]): 184 nl/l
minimum protection value (bananas [1]): 184 nl l^−1
rapidity of receptor inactivation relative to the dimethyl compound (banana peel; FIG. 3, 24 hour exposure): 1.55 ×
difference between the highest and lowest chlorophyll value of the concentration series (banana peel): 48 % of the control
protection of bananas compared with the dimethyl compound (banana peel; FIG. 5, aqueous phase, swabbed onto the top half, four days after exposure to ethylene gas): less protection
chlorophyll level in banana peels against concentration (banana peel): ascending concentrations to have increasing levels of chlorophyll
Chlorophyll (% of control) (bananas [3]; Gas control, bananas exposed as a gas 24 hours then ethylene 15 hours): 100 % of control
inactivation by acids or salts (bananas [3]; different pH values down to pH 1.5 for 1 hour, re-isolated and used in the usual treatments): little or no inactivation occurred
Chlorophyll (% of control) (bananas [3]; incubated 1 hour in H2O, neutralized, ether extract applied as a gas 24 hours, ethylene 15 hours): 98 % of control
Chlorophyll (% of control) (bananas [3]; incubated 1 hour in phosphoric acid (.1M, pH 1.5)): 98 % of control
Chlorophyll (% of control) (bananas [3]; incubated 1 hour in sodium acetate (0.1M, pH 4.75)): 100 % of control
Chlorophyll (% of control) (bananas [3]; incubated 1 hour in sodium formate (0.1M, pH 3.0)): 100 % of control
protection time (bananas [2]): 33 days
protection time (bananas [2]; [5]): 33 days

CCN(CC)CC1=CC1 [N,N--Diethyl (1-Cyclopropenylmethyl)amine]
minimum concentration required for protection of bananas (bananas [1]): 59 nl l^−I
Minimum Concentration (bananas [1]): 59 nl/l
protection time (bananas [2]): 32 days
protection time (bananas [2]; [5]): 32 days

CCCN(CCC)CC1=CC1 [N,N--Dipropyl (1-Cyclopropenylmethyl)amine]
minimum concentration required for protection of bananas (bananas [1]): 30 nl l^−I
Minimum Concentration (bananas [1]): 30 nl/l
ethylene response of bananas after gas exposure (banana peel; FIG. 4, gaseous phase, 10 and 15 μL, after seven days): had already begun showing an ethylene response
Chlorophyll (% of control) (banana peel; acetic acid + 50 μl, 24 hours, ethylene (300 μl/l) 15 hours, 5 days after ethylene): 43 % of Control
Chlorophyll (% of control) (banana peel; acetic acid + 200 μl, 24 hours, ethylene (300 μl/l) 15 hours, 5 days after ethylene): 46 % of Control
Chlorophyll (% of control) (banana peel; applied as gas, ethylene 15 hours, readings at 5 days): 100 % of control
effectiveness of the carbonate salt compared with other acids (banana peel; banana peel, Table 4): as effective as the other acids
Chlorophyll (% of control) (banana peel; carbonic + 50 μl, 24 hours, ethylene (300 μl/l) 15 hours, 5 days after ethylene): 47 % of Control
Chlorophyll (% of control) (banana peel; carbonic acid + 200 μl, 24 hours, ethylene (300 μl/l) 15 hours, 5 days after ethylene): 48 % of Control
Chlorophyll (% of control) (banana peel; salt with 0.1 M acetic acid buffer (pH 4.75), swab to ½ banana, 24 hours, ethylene 15 hours, readings at 5 days): 33 % of control
Chlorophyll (% of control) (banana peel; salt with 0.1 M acetic acid, swab to ½ banana, 24 hours, ethylene 15 hours, readings at 5 days): 31 % of control
Chlorophyll (% of control) (banana peel; salt with 0.1 M formic acid, swab to ½ banana, 24 hours, ethylene 15 hours, readings at 5 days): 30 % of control
Chlorophyll (% of control) (banana peel; salt with phosphoric acid (pH 1.5), swab to ½ banana, 24 hours, ethylene 15 hours, readings at 5 days): 30 % of control
effect on petunia flowers exposed to ethylene (Petunia hybridia): appears to withstand the ethylene response
protection time (bananas [2]): 33 days
protection time (bananas [2]; [5]): 33 days

O=C=O [CO2, carbon dioxide]
concentration in water ([4]; 1 atmosphere and 25° C. (Daniels and Alberty 1955)): 0.0338 M

N-(1-methylcyclopropene)-aniline
minimum concentration required for protection of bananas (bananas [1]): 248 nl l^−I
Minimum Concentration (bananas [1]): 248 nl/l
protection time (bananas [2]): 32 days
protection time (bananas [2]; [5]): 32 days

O=C(O)O [carbonic acid]
pKa ([4]; corrected for the equilibrium (Cotton et al. 1999)): 3.58
pKa ([4]; usually published value): 6.38
